Measurements: PubChem BioAssay AID1963425 (Molecular Pharmacology Branch, DTP, NCI, 2024)

Tested on: 323965-272-R-J2-PDC complex spheroid growth, % test/control
Test: Anticancer human tumor 323965-272-R-J2-PDC patient-derived pancreatic carcinoma cell line growth inhibition [Asc]
Conditions: for IC50: curve of first compound; for viability, T/C: stronger effect = lower value
Method in brief: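 Complex spheroids combining tumor cells with HUVEC endothelial cells and human MSCs, at 37 degrees C, 5% CO2; agents tested alone or combined, half-log dilutions from at or near clinical Cmax, or 10 microM if Cmax unknown.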
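Further: compound exposure lasted 7 days starting three days after spheroid seeding.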
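Wherever viability, T/C is given: 100% = DMSO vehicle control wells with viability set relative to vehicle.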

C=CC(=O)N1CCN(c2nc(=O)n(-c3c(C)ccnc3C(C)C)c3nc(-c4c(O)cccc4F)c(F)cc23)C(C)C1 (configuration not stated) + CNC(C)C(=O)NC1CN(S(=O)(=O)c2cccc(S(=O)(=O)N3CCC4CCC(C(=O)NC(c5ccccc5)c5ccccc5)N4C(=O)C(NC(=O)C(C)NC)C3)c2)CCC2CCC(C(=O)NC(c3ccccc3)c3ccccc3)N2C1=O
IC50 (second compound 0.00316 µM): > 10 µM
IC50 (second compound 0.01 µM): > 10 µM
IC50 (second compound 0.0316 µM): > 10 µM
IC50 (second compound 0.1 µM): > 10 µM
IC50 (second compound 0.316 µM): > 10 µM
IC50 (second compound 1 µM): > 10 µM
viability, T/C (second compound 0.00316 µM, first compound 0.0316 µM): 67.7%
viability, T/C (second compound 0.00316 µM, first compound 0.1 µM): 59.1%
viability, T/C (second compound 0.00316 µM, first compound 0.316 µM): 61.1%
viability, T/C (second compound 0.00316 µM, first compound 1 µM): 57.4%
viability, T/C (second compound 0.00316 µM, first compound 3.16 µM): 66.1%
viability, T/C (second compound 0.00316 µM, first compound 10 µM): 60.2%
viability, T/C (second compound 0.01 µM, first compound 0.0316 µM): 66.5%
viability, T/C (second compound 0.01 µM, first compound 0.1 µM): 70.6%
viability, T/C (second compound 0.01 µM, first compound 0.316 µM): 56.9%
viability, T/C (second compound 0.01 µM, first compound 1 µM): 69.8%
viability, T/C (second compound 0.01 µM, first compound 3.16 µM): 55.9%
viability, T/C (second compound 0.01 µM, first compound 10 µM): 70.3%
viability, T/C (second compound 0.0316 µM, first compound 0.0316 µM): 83.4%
viability, T/C (second compound 0.0316 µM, first compound 0.1 µM): 67.7%
viability, T/C (second compound 0.0316 µM, first compound 0.316 µM): 62.4%
viability, T/C (second compound 0.0316 µM, first compound 1 µM): 60.6%
viability, T/C (second compound 0.0316 µM, first compound 3.16 µM): 62%
viability, T/C (second compound 0.0316 µM, first compound 10 µM): 67.2%
viability, T/C (second compound 0.1 µM, first compound 0.0316 µM): 76.3%
viability, T/C (second compound 0.1 µM, first compound 0.1 µM): 60.5%
viability, T/C (second compound 0.1 µM, first compound 0.316 µM): 66.7%
viability, T/C (second compound 0.1 µM, first compound 1 µM): 58.8%
viability, T/C (second compound 0.1 µM, first compound 3.16 µM): 63.9%
viability, T/C (second compound 0.1 µM, first compound 10 µM): 61.3%
viability, T/C (second compound 0.316 µM, first compound 0.0316 µM): 64.3%
viability, T/C (second compound 0.316 µM, first compound 0.1 µM): 65.8%
viability, T/C (second compound 0.316 µM, first compound 0.316 µM): 56.9%
viability, T/C (second compound 0.316 µM, first compound 1 µM): 54.9%
viability, T/C (second compound 0.316 µM, first compound 3.16 µM): 63.2%
viability, T/C (second compound 0.316 µM, first compound 10 µM): 64.3%
viability, T/C (second compound 1 µM, first compound 0.0316 µM): 60.1%
viability, T/C (second compound 1 µM, first compound 0.1 µM): 61.1%
viability, T/C (second compound 1 µM, first compound 0.316 µM): 57.9%
viability, T/C (second compound 1 µM, first compound 1 µM): 60.3%
viability, T/C (second compound 1 µM, first compound 3.16 µM): 59%
viability, T/C (second compound 1 µM, first compound 10 µM): 56.6%
